# Results: patent US10703756B2, “Pyrrolo[2,3-D]pyrimidinyl, pyrrolo[2,3-B]pyrazinyl, pyrrolo[2,3-B]pyridinyl acrylamides and epoxides thereof” (Pfizer Inc., priority 2015, dated 2020)
# Assays:
# [1] = biological target: T1, JAK3 enzyme (Homo sapiens, UniProt P52333); experiment: JAK Caliper Enzyme Assay at 4 μM ATP; assay type: biochemical
# T1 sequence (P52333 1-1124): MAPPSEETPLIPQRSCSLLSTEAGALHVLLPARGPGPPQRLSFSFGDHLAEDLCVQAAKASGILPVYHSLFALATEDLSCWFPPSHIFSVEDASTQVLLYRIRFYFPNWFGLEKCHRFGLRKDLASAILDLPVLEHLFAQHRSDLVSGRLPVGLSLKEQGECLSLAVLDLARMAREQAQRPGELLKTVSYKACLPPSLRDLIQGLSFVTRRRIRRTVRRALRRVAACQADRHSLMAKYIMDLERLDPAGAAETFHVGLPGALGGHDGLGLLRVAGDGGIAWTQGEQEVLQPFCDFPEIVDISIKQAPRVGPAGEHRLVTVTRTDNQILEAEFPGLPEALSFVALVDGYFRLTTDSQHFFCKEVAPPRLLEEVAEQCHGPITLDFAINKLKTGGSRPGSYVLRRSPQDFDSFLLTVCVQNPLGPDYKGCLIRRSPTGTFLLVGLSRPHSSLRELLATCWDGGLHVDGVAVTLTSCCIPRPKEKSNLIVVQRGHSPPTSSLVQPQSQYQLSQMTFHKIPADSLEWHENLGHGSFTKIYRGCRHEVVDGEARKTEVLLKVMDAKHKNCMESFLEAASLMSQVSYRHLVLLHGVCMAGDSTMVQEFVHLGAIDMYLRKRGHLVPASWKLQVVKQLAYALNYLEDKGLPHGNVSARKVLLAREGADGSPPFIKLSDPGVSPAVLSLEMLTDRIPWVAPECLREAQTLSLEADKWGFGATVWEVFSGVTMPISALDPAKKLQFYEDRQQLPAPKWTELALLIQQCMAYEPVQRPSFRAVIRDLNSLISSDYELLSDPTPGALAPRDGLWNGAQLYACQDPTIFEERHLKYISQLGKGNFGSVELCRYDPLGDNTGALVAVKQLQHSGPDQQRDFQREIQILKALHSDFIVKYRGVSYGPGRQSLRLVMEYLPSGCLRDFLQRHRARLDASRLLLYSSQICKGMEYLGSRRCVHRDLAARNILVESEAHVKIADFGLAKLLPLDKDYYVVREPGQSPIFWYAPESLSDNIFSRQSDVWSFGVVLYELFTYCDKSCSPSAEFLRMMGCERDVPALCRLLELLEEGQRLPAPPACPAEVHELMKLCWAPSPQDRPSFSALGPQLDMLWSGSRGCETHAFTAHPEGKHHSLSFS
# Outline: (§1)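 Test compounds were diluted in DMSO as an 11-point half-log series from a 600 μM top concentration (DMSO series, not final assay level). Enzyme amount and incubation time were set per enzyme prep to reach 20%-30% phosphorylation. Phosphorylated and unphosphorylated peptide were resolved by microfluidic separation.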
# [2] = biological target: T1, JAK3 enzyme; experiment: JAK Caliper Enzyme Assay at 1 mM ATP; assay type: biochemical
# Outline: as §1
# [3] = Stability of JAK3 Covalent Inhibitors in Human Whole Blood; assay type: in vitro ADME; conditions: both sexes, 1 μM test compound, 37° C., 180 min incubation, read-out: Human blood stability t1/2
# Experimental: Stability of JAK3 Covalent Inhibitors in Rat and Human Whole Blood
# Rat blood was collected from 3 male Sprague-Dawley rats (200-250 g, Charles River Laboratories) and pooled for each study. Human blood was collected from healthy subjects at the Occupational Health & Wellness Center at Pfizer, Groton, Conn. and pooled for each study. Both rat and human blood was collected freshly into K2-EDTA tubes and kept on ice. An aliquot of the blood was transferred to microtubes and pre-warmed for 10 min at 37° C. using a heat block. The test compound was then added (1 μM final concentration) and the incubation was continued for 180 min at 37° C. in duplicates. An aliquot of the incubation mixture was removed at designated time points during the course of the incubation, mixed with an aliquot of acetonitrile containing an internal standard, vortexed and centrifuged. The resulting supernatants were removed and subjected to LC-MS/MS analyses to determine parent compound concentrations. Peak area ratios of the parent compound vs the internal standard were used to determine the % of parent compound remaining vs incubation time.
# [4] = system: IL-15 induced P-STAT5 in human PBMC; experiment: PBMC IL-15 Induced P-STAT5; assay type: cell-based; conditions: human PBMC, IL-15 final 41 ng/mL; read-out: PBMC IL15_pSTAT5_IC50
# Outline: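 Thawed human PBMC, rested in human plasma, were preincubated 15 min at 37 °C with compound (0.2% DMSO), then stimulated 15 min with IL-15 at 41 ng/mL final. After paraformaldehyde fixation and methanol permeabilisation, Alexa Fluor 647 anti-STAT5 staining overnight at 4 °C was analysed by flow cytometry on total lymphocytes.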
SMILES,IC50 [1] [nM],IC50 [2] [nM],half-life at 1 μM [3] [h],IC50 [4] [nM]
"C=CC(=O)N1CCCC1COc1cnc2[nH]cc(C(=O)N[C@@H](C)COC)c2n1 (mixture of isomers) [Example 7, Racemic-2-[(1-acryloylpyrrolidin-2-yl)methoxyl]-N-[(2S)-1-methoxypropan-2-yl]-5H-pyrrolo[2,3-b]pyrazine-7-carboxamide]",1.49,106,2.63,403
"C=CC(=O)N1CC[C@H](COc2cnc3[nH]cc(C(=O)N[C@@H](C)COC)c3n2)C1 (single isomer, unassigned) [Example 11]",1.61,308,3.46,
"C=CC(=O)N1C[C@H](Nc2cnc3[nH]cc(C(=O)N[C@@H](C)COC)c3n2)CC[C@@H]1C (single isomer, unassigned) [Example 66]",6.21,412,> 6,
"C=CC(=O)N1C[C@@H](Nc2cnc3[nH]cc(C(=O)N[C@H](C)COC)c3n2)CC[C@H]1C (single isomer, unassigned) [Example 70]",9.1,1390,> 6,
"C=CC(=O)N1CC[C@H](Nc2cnc3c(n2)c(C(=O)NCC)cn3C)C[C@@H]1C (single isomer, unassigned) [Example 350]",32.1,4370,> 6,
"C=CC(=O)N1CC[C@@H](Nc2cnc3c(n2)c(C(=O)NCC)cn3C)C[C@H]1C (single isomer, unassigned) [Example 351]",2.88,838,5.52,
"C=CC(=O)N1CCC[C@@H](Oc2cnc3[nH]cc(C(=O)N[C@@H](C)COC)c3n2)C1 [Example 49, 2-{[(3R)-1-acryloylpiperidin-3-yl]oxy}-N-[(2S)-1-methoxypropan-2-yl]-5H-pyrrolo[2,3-b]pyrazine-7-carboxamide]",27.1,2100,3.27,
"C=CC(=O)N(C)C1CN(c2cnc3[nH]cc(C(=O)N[C@@H](C)COC)c3n2)C1 [Example 85, 2-{3-[acryloyl(methyl)amino]azetidin-1-yl}-N-[(2S)-1-methoxypropan-2-yl]-5H-pyrrolo[2,3-b]pyrazine-7-carboxamide]",2.91,467,1.38,
"C=CC(=O)N1CCC(Oc2cnc3[nH]cc(-c4n[nH]c(C)n4)c3n2)CC1 [Example 115, 1-(4-{[7-(5-Methyl-1H-1,2,4-triazol-3-yl)-5H-pyrrolo[2,3-b]pyrazin-2-yl]oxy}piperidin-1-yl)prop-2-en-1-one]",8.31,929,3.77,
"C=CC(=O)N1CCC(Oc2cnc3[nH]cc(-c4nnc[nH]4)c3n2)CC1 [Example 120, 1-(4-{[7-(4H-1,2,4-Triazol-3-yl)-5H-pyrrolo[2,3-b]pyrazin-2-yl]oxy}piperidin-1-yl)prop-2-en-1-one]",4.48,725,> 6,
"C=CC(=O)N1CCC(Oc2cnc3[nH]cc(-c4ncnn4CC)c3n2)CC1 [Example 121, 1-(4-((7-(1-ethyl-1H-1,2,4-triazol-5-yl)-5H-pyrrolo[2,3-b]pyrazin-2-yl)oxy)piperidin-1-yl)prop-2-en-1-one]",6.96,921,2.67,
"C=CC(=O)N1CCC(Oc2cnc3[nH]cc(-c4nnco4)c3n2)CC1 [Example 128, 1-(4-{[7-(1,3,4-Oxadiazol-2-yl)-5H-pyrrolo[2,3-b]pyrazin-2-yl]oxy}piperidin-1-yl)propan-2-en-1-one]",6.67,787,> 6,
"C=CC(=O)N1CCC(C)(Nc2cnc3[nH]cc(C(=O)NCC4CC(F)(F)C4)c3n2)CC1 [Example 306, 2-[(1-acryloyl-4-methylpiperidin-4-yl)amino]-N-[(3,3-difluorocyclobutyl)methyl]-5H-pyrrolo[2,3-b]pyrazine-7-carboxamide]",0.705,107,,1570
"C=CC(=O)N1CCN(c2cnc3[nH]cc(C(=O)NCC)c3n2)CC1(C)C [Example 307, 2-(4-acryloyl-3,3-dimethylpiperazin-1-yl)-N-ethyl-5H-pyrrolo[2,3-b]pyrazine-7-carboxamide]",9.82,1080,,2130
"C=CC(=O)N1CCN(c2cnc3[nH]cc(C(=O)NCC(F)(F)F)c3n2)C[C@@H]1CC(C)C [Example 311, 2-[(3S)-4-acryloyl-3-(2-methylpropyl)piperazin-1-yl]-N-(2,2,2-trifluoroethyl)-5H-pyrrolo[2,3-b]pyrazine-7-carboxamide]",1.78,223,,586

# The next compounds have a lower IC50 [2] than those just listed; values first:
IC50 [1] [nM],IC50 [2] [nM],half-life at 1 μM [3] [h],SMILES,IC50 [4] [nM]
,76.9,> 6,"C=CC(=O)N1C[C@H](Oc2cnc3[nH]cc(C(=O)N[C@@H](C)COC)c3n2)CC[C@@H]1C (single isomer, unassigned) [Example 81]",
0.392,69,,"C=CC(=O)N1CC[C@@H](Nc2cnc3[nH]cc(C(=O)NC[C@H](C)CC(F)(F)F)c3n2)[C@@H](OC)C1 [Example 323, 2-{[(3S,4R)-1-acryloyl-3-methoxypiperidin-4-yl]amino}-N-[(2R)-4,4,4-trifluoro-2-methylbutyl]-5H-pyrrolo[2,3-b]pyrazine-7-carboxamide]",430
0.898,59,,"C=CC(=O)N1CC[C@@H](Nc2cnc3[nH]cc(C(=O)NCC4CC(F)(F)C4)c3n2)[C@@H](OC)C1 [Example 309, 2-{[(3S,4R)-1-acryloyl-3-methoxypiperidin-4-yl]amino}-N-[(3,3-difluorocyclobutyl)methyl]-5H-pyrrolo[2,3-b]pyrazine-7-carboxamide]",526
0.262,57,,"C=CC(=O)N1CCC(C)(Nc2cnc3[nH]cc(C(=O)N[C@H](C)COC)c3n2)CC1 [Example 335, 2-[(1-acryloyl-4-methylpiperidin-4-yl)amino]-N-[(2R)-1-methoxypropan-2-yl]-5H-pyrrolo[2,3-b]pyrazine-7-carboxamide]",849
0.269,47,,"C=CC(=O)N1CC[C@H](Nc2cnc3[nH]cc(C(=O)NCC4CC(F)(F)C4)c3n2)[C@H](OC)C1 [Example 322, 2-{[(3R,4S)-1-acryloyl-3-methoxypiperidin-4-yl]amino}-N-[(3,3-difluorocyclobutyl)methyl]-5H-pyrrolo[2,3-b]pyrazine-7-carboxamide]",428
0.307,44,,"C=CC(=O)N1CCC(C)(Nc2cnc3[nH]cc(C(=O)NCCCC(F)(F)F)c3n2)CC1 [Example 333, 2-[(1-acryloyl-4-methylpiperidin-4-yl)amino]-N-(4,4,4-trifluorobutyl)-5H-pyrrolo[2,3-b]pyrazine-7-carboxamide]",774
0.508,4,5.13,"C=CC(=O)N1CCC(Nc2cnc3[nH]cc(C(=O)NCCC)c3n2)CC1 [Example 170, 2-[(1-acryloylpiperidin-4-yl)amino]-N-propyl-5H-pyrrolo[2,3-b]pyrazine-7-carboxamide]",
